Experimental findings from US5639751A, “N-acyl-2,3-benzodiazepine derivatives for treating acute and chronic neurodegenerative disorders” (priority 1990, dated 1997) are described below.

Molecules are shown by their SMILES. Read-outs that look alike come from different tables or passages of the source.

For data set [1], the system named is AMPA/kainate receptors. Briefly: Inhibition of synaptic field potentials (population spikes) in rat hippocampal slices. It counts as cell-based. The conditions noted are these: population spikes in CA1, after 30 min. perfusion. Here is the method: Synaptic potentials in the CA1 area of hippocampus evoked by stimulation of the Schaffer collaterals are mediated by AMPA/kainate receptors. […] Lett. 92, 64 (1988)].
The inhibition of population spikes in CA1 was studied in rat hippocampal slices after 30 min. perfusion application of the test compounds.

Data set [2] can be described thus: AMPA induced spreading depression in isolated chicken retina. The conditions noted are these: AMPA (5 μM). Type of data set: cell-based. Here is the method:
(§1) Anti-kainate and -AMPA effects were investigated in the in vitro retinal spreading depression model [Brain Res. 607, 189 (1993)]. AMPA/kainate antagonists prolong the latency of the development of spreading depression evoked. by kainate (5 μM), or AMPA (5 μM). In some cases the effect on spreading depression evoked by 100 μM NMDA was also studied to clarify the selectivity.

The nature of data set [3]: Kainate induced spreading depression in isolated chicken retina. It counts as cell-based. The conditions noted are these: kainate (5 μM). Here is the method: as §1
Data set [4] relates to male CFLP mice. Briefly: Anticonvulsive effect in mice, electroshock test. The conditions noted are these: Mus musculus, po, read-out: ED50 p.o., ES (electroshock). Type of data set: in vivo. Here is the method: (§2) The anticonvulsive effect of the compounds of the formula (I) was measured by using the electroshock test [J. Pharmacol. Exp. Ther. 106, 319 (1952)], furthermore by using various chemical agents such as pentetrazole [J. Pharmacol. Exp. Ther. 108, 168 (1953)], strychnine [J. Pharmacol. Exp. Ther. 129, 75 (1960)], bemegride, nicotine and 4-aminopyridine. The test compounds were orally administered in 3 doses, to 10 male CFLP mice per dose.

Data set [5] relates to male CFLP mice. Briefly: Anticonvulsive effect in mice, pentetrazole. It counts as in vivo. The conditions noted are these: Mus musculus, po, read-out: ED50 p.o., Pentetrazole. The method, then: as §2
The subject of data set [6] is CFLP mice. Briefly: Inclined screen test in mice. Type of data set: in vivo. The settings on record: Mus musculus, ip, read-out: ED50 i.p., inclined screen test. An excerpt: In Randall's inclined screen test [J. Pharmacol. Exp. Ther. 129, 163 (1960)] the compounds were applied in 3 i.p. doses to 10 CFLP mice per dose.
For data set [7], the system named is mice. Briefly: Rotarod test in mice. The settings on record: Mus musculus, ip, read-out: ED50 i.p., rotarod test. Type of data set: in vivo. An excerpt:
The rotarod test was used to measure muscular tone and motor co-ordination [J. Am. Pharm. Assoc. 46, 208 (1957)].
In general terms: Falling from the rotarod earlier than controls is read as motor impairment.

Data set [8] has as its system cats. Briefly: Effect on spinal (polysynaptic) flexor reflexes in chloralose anaesthetized cats. Type of data set: in vivo. The conditions noted are these: Felis catus, iv. An excerpt: Res. Comm. 20, S1, 141 (1988)].
A short description of data set [9]: Acute toxicity in mice. The settings on record: mouse, in vivo. Here is the method:
The cause of mortality was respiratory insufficiency developing within 1 to 2 hours after i.p. administration and within 10 to 20 hours after oral application.

In data set [10] the test system is mice. Briefly: Protection against methamphetamine-induced dopaminergic neurotoxicity, in mice. It counts as in vivo. The conditions noted are these: METH 2×20 mg/kg i.p., Example 128 3×5 mg/kg i.p., MK-801 3×2.5 mg/kg i.p.; for (DOPAC + HVA)/DA, % / DA, %: % of saline group; for (DOPAC + HVA)/DA, mean ± SE: striatal dopamine turnover; for DA, μg/g tissue, mean ± SE: striatal dopamine. Here is the method: High doses of methamphetamine (2×20 mg/kg i.p.) decrease the striatal level of dopamine, which can be prevented by glutamate antagonists, e.g. the NMDA-antagonist MK-801 [Science 243, 398 (1989)].

Data set [11] has as its system male CFLP mice. Briefly: Anticonvulsive effect in mice, strychnine. It counts as in vivo. The settings on record: Mus musculus, po, read-out: ED50 p.o., Strychnine. The method, then: as §2
Data set [12] concerns male CFLP mice. Briefly: Anticonvulsive effect in mice, bemegride. The settings on record: Mus musculus, po, read-out: ED50 p.o., Bemegride. Type of data set: in vivo. The method, then: as §2
Data set [13] has as its system male CFLP mice. Briefly: Anticonvulsive effect in mice, nicotine. It counts as in vivo. The conditions noted are these: Mus musculus, po. Here is the method: as §2
In data set [14] the test system is cats. Briefly: Effects on spinal root reflex potentials in spinalized and immobilized cats. It counts as in vivo. The settings on record: for minimal effective dose / ED50: Felis catus; for ED50: iv. Here is the method: The effect of compound of Example 15(16) on the spinal root potentials in cats was tested in spinalized and immobilized animals [Neuropharmacology 21, 161 (1989)].

The test system of data set [15] is AMPA receptors. Briefly: Inhibition of synaptic field potentials in rat neocortex slices. It counts as cell-based. An excerpt: Similarly as in hippocampal CA1 area, glutamate is the main excitatory transmitter in the neocortex, and dominantly AMPA receptors are involved in mediation of synaptic responses evoked by stimulation of the white matter and recorded from the area adjacent to the site of stimulation [J. Neurophysiol. 64, 1282 (1990)]. The inhibitory effect on such field potentials was studied in rat neocortex slices, maintained in Vitro, according to Fletcher et al. [Br. J. Pharmacol. 95, 585 (1988)].

The test system of data set [16] is AMPA receptor. Briefly: Inhibition of quisqualate induced DC potentials in rat neocortex slices. It counts as cell-based. The conditions noted are these: 2-minute perfusion with 10 μM of quisqualate, corresponding concentrations. The method, then: The AMPA antagonist effect was tested in rat neocortex slices by using a method similar to that of Harrison and Simmonds [Br. J. Pharmacol. 84, 381 (1985)].

Data set [17] deals with NMDA. Briefly: NMDA induced responses (DC potentials) in rat neocortex slices. It counts as cell-based.
Data set [18] deals with male CFLP mice. Briefly: Anticonvulsive effect in mice, 4-aminopyridine. Type of data set: in vivo. The conditions noted are these: Mus musculus, po, read-out: ED50 p.o., 4-AP (4-aminopyridine). Here is the method: as §2

`CNC(=O)N1N=C(c2ccc(N)cc2)c2cc3c(cc2CC1C)OCO3` (single isomer, unassigned; (-)) [Example 123, (-)-1-(4-Aminophenyl)-3-methylcarbamoyl-4-methyl-7,8-methylenedioxy-3,4-dihydro-5H-2,3 benzodiazepine]: the half-inhibitory concentration (IC50) in data set [1] is 3.9 µM; in data set [2] it was 1.7 µM; in data set [3] it was 0.5 µM. For the same compound, the ED50 was found to be 8.4 mg/kg in data set [4]; 13.8 mg/kg in data set [5]; 8.8 mg/kg in [6]; 1.9 mg/kg in data set [7]; 0.05 mg/kg in [8]. The median lethal dose (LD50) in data set [9] (ip, read-out: LD50 i.p.) was roughly 50 mg/kg; in data set [9] (po, read-out: LD50 p.o.) it was 75 to 100 mg/kg.
With `CC(=O)N1N=C(c2ccc(N)cc2)c2cc3c(cc2CC1C)OCO3` (single isomer, unassigned; (-)) [Example 128, (-)-1-(4-Aminophenyl)-3-acetyl-4-methyl-7,8-methylenedioxy-3,4-dihydro-5H-2,3-benzodiazepine], the IC50 in data set [1] turned out to be 7.8 µM; in [2] it was 1 µM; in data set [3], 2.7 µM. For the same compound, the ED50 in [4] (mice, p.o.) is 5.3 mg/kg; in data set [5] (mice, p.o.), 16.8 mg/kg; in data set [7] (mice, i.p.) it was 2.3 mg/kg; in [8] it was 0.13 mg/kg. For the same compound, in data set [10], the “(DOPAC + HVA)/DA, %” value stood at 144%. For the same compound, the “DA, %” value in [10] came out at 48%. Besides, the “(DOPAC + HVA)/DA, mean ± SE” value in data set [10] was 0.36 ± 0.10. Further, the “DA, μg/g tissue, mean ± SE” value in data set [10] is listed as 7.17 ± 1.89 μg/g tissue. The LD50 in data set [9] (ip, read-out: LD50 i.p.) was 73.5 mg/kg; in data set [9] (po, read-out: LD50 p.o.), roughly 100 mg/kg.
Take `N#Cc1cc2[nH]c(=O)c(=O)[nH]c2cc1[N+](=O)[O-]` [CNQX, 1,2,3,4-tetrahydro-7-nitro-2,3-dioxo-quinoxalinecarbonitrile, reference compound]: the IC50 in data set [1] came to 1.4 µM.
Take `CN1C(=O)CN=C(c2ccccc2)c2cc(Cl)ccc21` [Diazepam, 7-chloro-1,3-dihydro-1-methyl-5-phenyl-2H-1,4-benzodiazepin-2-one, reference compound]: the ED50 in data set [4] came to 18 mg/kg; in [5], 0.86 mg/kg; in data set [11], 15 mg/kg; in data set [12] it was 0.58 mg/kg; in [13] it was 1.85 mg/kg. In data set [14], the “Effect on both dorsal root responses” value is on record as “markedly potentiated”. The minimal effective dose in [14] (read-out: Minimal effective dose, inhibition of polysynaptic reflexes) is less than 0.1 mg/kg; in data set [14] (read-out: Minimal effective doses, potentiation of dorsal root responses), roughly 0.1 mg/kg. In [14] (partial inhibition), the “Maximal inhibition of polysynaptic reflexes” value was no more than 50%. Also, in data set [14] (up to 3.2 mg/kg), the “Effect on monosynaptic reflexes” value is “did not affect”.
On to `CC(=O)N1N=C(c2ccc(N)cc2)c2cc3c(cc2CC1C)OCO3` (stereo not shown) [Example 15 (16), 1-(4-Aminophenyl)-3-acetyl-4-methyl-7,8-methylenedioxy-3,4-dihydro-5H-2,3-benzodiazepine], for which the IC50 in data set [1] was 24.8 µM; in data set [15] it was 21.5 µM; in data set [2], 3.7 µM; in data set [3], 5.1 µM. In addition, the “Inhibition of induced field potentials in % of control” value came to 30% in [15] (concentration 10 μM), 47% in data set [15] (concentration 20 μM), 69% in data set [15] (concentration 40 μM) and 82% in data set [15] (concentration 80 μM). In addition, the “Activity relative to the reference compound GYKI 52466 in inhibiting the response to quisqualate” value in data set [16] was “twice as active”. For the same compound, in data set [17], the “Effect on the responses induced by NMDA” value is “failed to affect”. In addition, the ED50 in data set [4] (mice, p.o.) was 12 mg/kg; in data set [5] (mice, p.o.), 46.8 mg/kg; in data set [11] it was greater than 200 mg/kg; in [12] (mice, p.o.), 16 mg/kg; in data set [13] it was 45 mg/kg; in [18] (mice, p.o.) it was 9 mg/kg. In addition, the ED50 in data set [6] (mice, i.p.) is 23.5 mg/kg; in data set [7] (mice, i.p.), 3.7 mg/kg; in data set [8] it was 0.36 mg/kg; in [14] (* <20% inhibition at the highest dose applied, read-out: ED50, DRP (dorsal root potential)) it was greater than 1.6 mg/kg; in data set [14] (* <20% inhibition at the highest dose applied, read-out: ED50, DRR (dorsal root reflex)) it was greater than 1.6 mg/kg; in data set [14] (read-out: ED50, MSR (monosynaptic ventral root reflex)), 0.69 mg/kg. Also, in data set [14] (read-out: ED50, PSR (polysynaptic ventral root reflex)), the ED50 stood at 0.77 mg/kg. Also, the LD50 was 127 mg/kg in data set [9] (ip, read-out: LD50 i.p.) and 130 mg/kg in [9] (po, read-out: LD50 p.o.).
`CNC(=O)N1N=C(c2ccc(N)cc2)c2cc3c(cc2CC1C)OCO3` (stereo not shown) [Example 98, 1-(4-Aminophenyl)-3-methylcarbamoyl-4-methyl-7,8-methylenedioxy-3,4-dihydro-5H-2,3-benzodiazepine] yielded an IC50 in data set [1] of 12.6 µM. Also, the ED50 was 17.1 mg/kg in [4]; 21.3 mg/kg in [5]; 29 mg/kg in data set [11]; 11 mg/kg in [12]; 19 mg/kg in data set [13]; 13.5 mg/kg in data set [18]. Further, the ED50 in data set [6] is 18 mg/kg; in data set [7] it was 8.6 mg/kg; in data set [8], 0.14 mg/kg. The LD50 in [9] (ip, read-out: LD50 i.p.) amounted to 93.1 mg/kg; in data set [9] (po, read-out: LD50 p.o.), 96.6 mg/kg.
For `C[C@]12N[C@H](Cc3ccccc31)c1ccccc12` [MK-801, (+)-10,11-dihydro-5-methyl-5H-dibenzo[a,d]cyclohepten-5,10-imine (Z)-2-butene-dioate, reference compound], in [10], the “(DOPAC + HVA)/DA, %” value was determined as 132%; the “DA, %” value is 66%; the “(DOPAC + HVA)/DA, mean ± SE” value is 0.33 ± 0.06; the “DA, μg/g tissue, mean ± SE” value is recorded as 10.01 ± 1.10 μg/g tissue.
For `NS(=O)(=O)c1cccc2c1c([N+](=O)[O-])cc1[nH]c(=O)c(=O)[nH]c12` [NBQX, 1,2,3,4-tetrahydro-6-nitro-2,3-dioxo-benzo(f)quinoxaline-7-sulfonamide, reference compound], the ED50 in data set [8] is 0.91 mg/kg.

As a reminder, the IC50 is the concentration at which inhibition is half-maximal. A high value points to lower potency. As usually defined, the ED50 is the midpoint of the dose-response relation. Usually LD50 stands for the dose at which mortality reaches 50%.
